According to patent publication US8383638B2, “Aminobenzoquinazolinone M1 receptor positive allosteric modulators” (Merck Sharp & Dohme, priority 2009, dated 2013):

target: T1, acetylcholine muscarinic M1 receptor (Homo sapiens, UniProt P11229); experiment: muscarinic FLIPR assay: potentiation of acetylcholine (EC20)-stimulated intracellular Ca2+ in CHOnfat/hM1 cells; assay type: cell-based; conditions: 4 min preincubation, then EC20 acetylcholine (3 nM final), positive allosteric modulator activity, read-out: IP Value (inflection point)
T1 construct: expressed in transfected cells; host or cells: CHOnfat cells (CHO; also called CHOK1/hM1)
T1 sequence (P11229 1-460): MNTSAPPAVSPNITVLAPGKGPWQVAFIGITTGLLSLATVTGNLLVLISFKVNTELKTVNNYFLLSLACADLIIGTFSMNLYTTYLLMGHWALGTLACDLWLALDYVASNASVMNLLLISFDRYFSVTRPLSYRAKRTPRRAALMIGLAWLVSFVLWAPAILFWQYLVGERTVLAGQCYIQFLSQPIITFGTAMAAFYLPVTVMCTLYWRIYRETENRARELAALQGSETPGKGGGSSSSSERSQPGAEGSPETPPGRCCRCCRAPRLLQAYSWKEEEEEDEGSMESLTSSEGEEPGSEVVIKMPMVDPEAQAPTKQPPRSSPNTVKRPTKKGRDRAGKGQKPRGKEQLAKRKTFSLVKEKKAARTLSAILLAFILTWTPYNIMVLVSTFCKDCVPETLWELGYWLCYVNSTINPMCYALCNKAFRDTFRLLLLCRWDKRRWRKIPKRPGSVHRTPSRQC
Experimental: The assay studies the effect of one or several concentrations of test compounds on basal or acetylcholine-stimulated Ca^2+ levels using FLIPR.
Compounds are prepared and subjected to a preincubation period of 4 min. Thereafter, a single EC20 concentration of acetylcholine is added to each well (3 nM final). The intracellular Ca^2+ level of each sample is measured and compared to an acetylcholine control to determine any modulatory activity.
Cells: CHOnfat/hM1, hM2, hM3 or hM4 cells are plated 24 hr before the assay at a density of 18,000 cells/well (100 μL) in a 384 well plate. CHOnfat/hM1 and CHOnfat/hM3 Growth Medium: 90% DMEM (Hi Glucose); 10% HI FBS; 2 mM L-glutamine; 0.1 mM NEAA; Pen-Strep; and 1 mg/ml Geneticin, are added. For M2Gqi5CHOnfat and M4Gqi5CHOnfat cells, an additional 600 ug/ml hygromycin is added.
Equipment: 384 well plate, 120 μL addition plate; 96-well Whatman 2 ml Uniplate Incubator, 37° C., 5% CO2; Skatron EMBLA-384 Plate Washer; Multimek Pipetting System; Genesis Freedom 200 System; Mosquito System; Temo Nanoliter Pipetting System; and FLIPR^384 Fluorometric Imaging Plate Reader System are used.
Buffers. Assay Buffer: Hanks Balanced Salt Solution, with 20 mM Hepes, 2.5 mM Probenecid (Sigma P-8761) first dissolved in 1 N NaOH, 1% Bovine Serum Albumin (Sigma A-9647). Dye Loading Buffer: Assay Buffer plus 1% Fetal Bovine Serum and Fluo-4AM/Pluronic Acid Mixture. 2 mM Fluo-4AM ester stock in DMSO (Molecular Probes F-14202) Concentration of 2 μM in buffer for a final concentration of 1 μM in Assay. 20% Pluronic Acid Solution stock, with concentration of 0.04% in Buffer, 0.02% in Assay.
65 μL of 2 mM Fluo-4AM are mixed with 130 μL of 20% Pluronic Acid. The resulting solution and 650 μL FBS is added to the assay buffer for a total volume of 65 mL. Positive Controls: 4-Br-A23187: 10 mM in DMSO; final concentration 10 μM. Acetylcholine: 10 mM in water, working stock at both 20 μM and 30 μM in assay buffer, final concentration of 10 μM. This is used to check the maximum stimulation of the CHOK1/hM1 cells. 20 μM (2×) acetylcholine is added in the preincubation part of the assay, and the 30 μM (3×) stock is added in the second part. (EC20)Acetylcholine: 10 mM in water, working stock of 9 nM (3×), and final concentration in assay is 3 nM. This is used after the preincubation with test compounds. Addition of the EC20 Acetylcholine to each well with a test compound will ascertain any modulator activity. 24 wells contain 3 nM Acetylcholine alone as a control.
Screening Plate Compounds are titrated in 96-well plates (columns 2-11), 100% DMSO, started at a concentration of 15 mM (150× stock concentration), and 3-fold serial dilutions using Genesis Freedom200 System. Four 96-well plates are combined into a 384-well plate using Mosquito Nanoliter Pipetting System by transferring 1 μl of serial diluted compounds to each well, and 1 mM acetylcholine (100× stock concentration) were added as a control. Using Temo, 49 μl assay buffer is added to each well of the 384-well plate right before assay.
In a 96-well Whatman 2 ml Uniplate, 9 nM Acetylcholine (3×) is pipetted into wells corresponding to the screening compounds, and into control wells. The 30 μM acetylcholine control (3×) is added into control wells, and the 3× agonist plate is transferred into a 384 well plate.
Cells are washed three times with 100 μL of buffer, leaving 30 μL of buffer in each well. Using Multimek, 30 μL of Dye Loading Buffer is added into each well and incubated at 37° C., 5% CO2 for up to one hr.
After 60 min, the cells are washed three times with 100 μL of buffer, leaving 30 μL […] of buffer in each well. The cell plate, screening plate, and agonist addition plates are placed on the platform in the FLIPR and the door closed. A signal test to check background fluorescence and basal fluorescence signal is performed. Laser intensity is adjusted if necessary. […]

Compared with O=c1c2cc(CN3CCC(F)(c4ccccn4)CC3)c3ccccc3c2ncn1[C@H]1CCCC[C@@H]1O [Example 9, 6-[(4-Fluoro-4-pyridin-2-ylpiperidin-1-yl)methyl]-3-[(1S,2S)-2-hydroxycyclohexyl]benzo[h]quinazolin-4(3H)-one], N#CC1(c2ccccn2)CCN(Cc2cc3c(=O)n([C@H]4CCCC[C@@H]4O)cnc3c3ccccc23)CC1 (racemic) [Example 1, rac-1-({3-[(1R,2R)-2-Hydroxycyclohexyl]-4-oxo-3,4-dihydrobenzo[h]quinazolin-6-yl}methyl)-4-pyridin-2-ylpiperidine-4-carbonitrile] is 2.3-fold lower in EC50: 105 nM for the first, 45 nM for the second. The second is the more potent here.

Cc1ccnc(C2(C#N)CCN(Cc3cc4c(=O)n([C@H]5CCCC[C@@H]5O)cnc4c4ccncc34)CC2)c1 [Example 5, 1-({3-[(1S,2S)-2-Hydroxycyclohexyl]-4-oxo-3,4-dihydropyrido[3,4-h]quinazolin-6-yl}methyl)-4-(4-methylpyridin-2-yl)piperidine-4-carbonitrile] and N#CC1(c2ccccn2)CCN(Cc2cc3c(=O)n([C@H]4CCCC[C@@H]4O)cnc3c3ccccc23)CC1 [Example 2, 1-({3-[(1S,2S)-2-Hydroxycyclohexyl]-4-oxo-3,4-dihydrobenzo[h]quinazolin-6-yl}methyl)-4-pyridin-2-ylpiperidine-4-carbonitrile] are within 1.5-fold of each other in EC50: 21 nM for the first, 18 nM for the second.

First: N#CC1(c2ccccn2)CC[N+]([O-])(Cc2cc3c(=O)n([C@H]4CCCC[C@@H]4O)cnc3c3ccccc23)CC1 (stereo partly drawn) [Example 4, 1-({3-[(1S,2S)-2-Hydroxycyclohexyl]-4-oxo-3,4-dihydrobenzo[h]quinazolin-6-yl}methyl)-4-pyridin-2-ylpiperidine-4-carbonitrile 1-oxide]
Second: N#CC1(c2ccccn2)CCN(Cc2cc3c(=O)n([C@H]4CCOC[C@@H]4O)cnc3c3ccccc23)CC1 [Example 3]
The EC50 of the first is 130-fold higher: 3880 nM for the first, 31 nM for the second.

Going from O=c1c2cc(CN3CCN(c4ccsc4)CC3)c3ccccc3c2ncn1[C@H]1CCCC[C@@H]1O [Example 6, 3-[(1S,2S)-2-Hydroxycyclohexyl]-6-{[4-(3-thienyl)piperazin-1-yl]methyl}benzo[h]quinazolin-4(3H)-one] to Cn1cc(N2CCN(Cc3cc4c(=O)n([C@H]5CCCC[C@@H]5O)cnc4c4ccccc34)CC2=O)cn1 (racemic) [Example 7, rac-3[(1R,2R)-2-Hydroxycyclohexyl]-6-{[4-(1-methyl-1H-pyrazol-4-yl)-3-oxopiperazin-1-yl]methyl}benzo[h]quinazolin-4(3H)-one], the EC50 falls from 387 nM to 44 nM (8.8-fold). The second is the more potent here.

CC1(C#N)CCN(Cc2cc3c(=O)n([C@H]4CCCC[C@@H]4O)cnc3c3ccccc23)CC1 [Example 8, 1-({3-[(1S,2S)-2-Hydroxycyclohexyl]-4-oxo-3,4-dihydrobenzo[h]quinazolin-6-yl}methyl)-4-methylpiperidine-4-carbonitrile] showed an EC50 of 339 nM.
